The results in this text go back to patent US20170156315A1, “METHODS AND COMPOSITIONS OF GRANULE FORMULATIONS” (AgroFresh Inc., priority 2010, published 2017).

In the assay the test system is rice plants. In words: Treatment of rice plants in open fields, yield. The assay is classed as in vivo. Particulars: rice field trial, single application of 50 g a.i./hectare 1-MCP with sample 7-3. An excerpt:
Assessment of Improvement to Crop Yield—Each treated plot is compared to an appropriate untreated control plot. The outcome is reported as “DY %” (Delta Yield Percent), which is defined as follows:
where YT=yield of the treated plot, and where YU=yield of the untreated plot. For example, DY of 10% means the treated plot has yield that is 10% higher than the untreated plot. Negative Delta Yield means that the treated rice has lower yield than the untreated crop.
Granule formulations of samples 7-3 and 7-4 are used to treat rice plants in open fields. Typical amount of 1-MCP treated range from 10 g active ingredient (a.i.)/hectare (or 4 g a.i./acre) to 100 g a.i./hectare (or 40 g a.i/acre).
Optimum phonological stages of the rice plants range from maximum tillering through grain filling (for example at least one of: meiosis, complete open of flower, and grain filling). Typically only a single treatment of 1-MCP is performed before harvest, but multiple treatments of 1-MCP before harvest can also be performed. Treatment(s) of 1-MCP on rice plants show yield increase ranging from 14% to 28%, depending on the amount of 1-MCP and stage of treatment(s). Data of a field trial using single application of 50 g a.i./hectare 1-MCP with sample 7-3 (a granule formulation containing 1% 1-MCP) are shown in Table 9

“And” between values parts separate entries of the source, which are not always exact repeats. Equal entries are not always repeated.

Take `CC1=CC1` [Sample 1-MCP, 1-methylcyclopropene]: the “Yield (kg/ha)” value (individual treatments 8-1 to 8-4) is 7340 kg/ha and 7450 kg/ha and 7865 kg/ha and 7715 kg/ha. The “Mean (kg/ha)” value (mean of treatments 8-1 to 8-4) was found to be 7592.5 kg/ha.
